What is called MIC is the lowest concentration that inhibits growth of the organism. As a reminder, the IC50 is the point on the concentration scale where inhibition reaches its midpoint. One may read the melting point as the temperature of the solid-liquid transition.

These results are taken from paper PMC6272317, “Design, Synthesis and Antitubercular Activity of Certain Nicotinic Acid Hydrazides” (Molecules, 2015).

In series [1] the test system is M. tuberculosis (RCMB 010126). The series can be described thus: microplate Alamar blue assay (MABA), in vitro antimycobacterial activity. It counts as cell-based, Mycobacterium tuberculosis. The conditions noted are these: for Mean of Inhibition %: test concentration not stated; for MIC: visual MIC.
Series [2] deals with A-549 human lung cancer cell line. Further details: method as in PMID 25499988. The conditions noted are these: previous study ref 40, cited from earlier work; for IC50: A549, 72 h; for cytotoxicity (in words): A549.
Series [3] relates to HepG-2 liver cancer cell line. Further details: method as in PMID 25499988. The conditions noted are these: previous study ref 40, cited from earlier work; for IC50: HepG2, 72 h; for cytotoxicity (in words): HepG2.
Series [4] concerns MCF-7 breast cancer cell line. Further details: method as in PMID 25499988. The conditions noted are these: previous study ref 40, cited from earlier work; for IC50: MCF-7, 72 h; for cytotoxicity (in words): MCF-7.
Series [5] concerns PC-3 prostate cancer cell line. The series can be described thus: SRB cytotoxicity assay, PC-3. The conditions noted are these: for IC50: 72 h; for cytotoxicity (in words): PC-3. (In general: In SRB staining, fixed cells bind dye roughly in proportion to their protein.)
Series [6] has as its system HT-29 colon cancer cell line. The series can be described thus: SRB cytotoxicity assay, HT-29. The conditions noted are these: for cytotoxicity (in words): HT-29; for IC50: Homo sapiens, HT-29, 72 h.
The mark [7] stands for this setting: M. tuberculosis RCMB 010126, MABA.
Where [8] appears, read: Mycobacterium tuberculosis, RCMB010126, M. tuberculosis RCMB 010126, MABA, read-out: MIC.

≈ marks a conversion by molar mass, not a printed value. Like-named read-outs stand apart in the source and are kept apart here.

As to `Cc1nc(-c2ccc(F)cc2)ccc1C(=O)N/N=C1\C(=O)Nc2ccc(Br)cc21` [Compound 8c], the “Mean of Inhibition %” value in series [1] (setting [7]) came out at 77.42 ± 0.93%. Also, the MIC in series [1] (setting [8]) is 6.25 µg/mL (≈ 13.8 µM). The IC50 in series [2], in series [3], in series [4], in series [5] and in series [6] was greater than 200 µM throughout. Further, the “cytotoxicity (in words)” value in series [2], in series [3], in series [4], in series [5] and in series [6] was “devoid of apparent cytotoxicity” in each case.
As to `COc1cccc2c1C(=O)c1c(O)c3c(c(O)c1C2=O)C[C@@](O)(C(=O)CO)C[C@@H]3O[C@H]1C[C@H](N)[C@H](O)[C@H](C)O1` [Doxorubicin, reference compound], the concentration for half-maximal inhibition (IC50) is 7.6 ± 1.37 µM in series [2]; 6.9 ± 2.05 µM in series [3]; 6.1 ± 1.95 µM in series [4]; 6.5 ± 1.07 µM in series [5]; 7.3 ± 1.11 µM in series [6].
Consider `COc1ccc(-c2ccc(C(=O)NN)c(C)n2)cc1` [Compound 4f, 6-(4-Methoxyphenyl)-2-methylnicotinohydrazide], for which the “Mean of Inhibition %” value in series [1] (setting [7]) was found to be 42.63 ± 0.16%. In series [1] (setting [8]), the minimal inhibitory concentration (MIC) was determined as 25 µg/mL (≈ 97.2 µM).
For `Cc1nc(-c2ccc(F)cc2)ccc1C(=O)NN` [Compound 4c, 6-(4-fluorophenyl)-2-methylnicotinohydrazide], the “Mean of Inhibition %” value in series [1] (setting [7]) is “NA (No Activity (>100 µg/mL))”. The “antimycobacterial activity (in words)” value in series [1] (M. tuberculosis, MABA) is listed as “complete loss of activity”. In series [1] (setting [8]), the minimum inhibitory concentration (MIC) was greater than 100 µg/mL.
For the molecule `Cc1nc(-c2ccc(Cl)cc2)ccc1C(=O)NN` [Compound 4d], in series [1] (setting [7]), the minimal inhibitory concentration (MIC) was found to be 100 µg/mL (≈ 382 µM) and the “Mean of Inhibition %” value was 12.45 ± 0.58%. For the same molecule, in series [1] (setting [8]), the MIC is 50 µg/mL (≈ 191 µM).
As to `Cc1nc(-c2ccc(Br)cc2)ccc1C(=O)NN` [Compound 4e, 6-(4-Bromophenyl)-2-methylnicotinohydrazide], the melting point lay in the range of 213 to 215 °C. Moreover, in series [1] (setting [7]), the MIC is 50 µg/mL (≈ 163 µM) and the “Mean of Inhibition %” value stood at 20.63 ± 0.63%. For the same molecule, the MIC in series [1] (setting [8]) was 100 µg/mL (≈ 327 µM).
As to `Cc1ccc(-c2ccc(C(=O)NN)c(C)n2)cc1` [Compound 4b], in series [1] (setting [7]), the “Mean of Inhibition %” value stood at 36.33 ± 0.58%. Besides, the MIC in series [1] (setting [8]) was found to be 25 µg/mL (≈ 104 µM).
Consider `Cc1nc(-c2ccc(F)cc2)ccc1C(=O)N/N=C1\C(=O)Nc2ccc(Cl)cc21` [Compound 8b], for which the MIC in series [1] (setting [7]) and in series [1] (setting [8]) was 12.5 µg/mL (≈ 30.6 µM) in each case. Besides, the “Mean of Inhibition %” value in series [1] (setting [7]) is 52.63 ± 0.58%. Also, the half-inhibitory concentration (IC50) in series [2], in series [3], in series [4], in series [5] and in series [6] was greater than 200 µM each time. Also, the “cytotoxicity (in words)” value in series [2], in series [3], in series [4], in series [5] and in series [6] was “devoid of apparent cytotoxicity” each time.
With `COc1ccc(-c2ccc(C(=O)NN)c(C)n2)cc1OC` [Compound 4g, 6-(3,4-Dimethoxyphenyl)-2-methylnicotinohydrazide], the melting point was in the range of 204 to 205 °C. Further, in series [1] (setting [7]), the “Mean of Inhibition %” value turned out to be 22.63 ± 0.16%. Also, in series [1] (setting [8]), the MIC was determined as 50 µg/mL (≈ 174 µM).
Take `COc1cc(-c2ccc(C(=O)NN)c(C)n2)cc(OC)c1OC` [Compound 4h, 2-Methyl-6-(3,4,5-trimethoxyphenyl)nicotinohydrazide]: in series [1] (setting [7]), the “Mean of Inhibition %” value turned out to be 18.32 ± 0.72%. Further, the MIC in series [1] (setting [8]) is 50 µg/mL (≈ 158 µM).
Molecule `Cc1nc(-c2ccc(Br)cc2)ccc1C(=O)NN=Cc1ccccc1` [Compound 7a, N′-Benzylidene-6-(4-bromophenyl)-2-methylnicotinohydrazide] came in with a melting point of 270 to 272 °C. The “Mean of Inhibition %” value in series [1] (setting [7]) is recorded as “NA (No Activity (>100 µg/mL))”. Besides, the MIC in series [1] (setting [8]) is greater than 100 µg/mL.
With `Cc1nc(-c2cccs2)ccc1C(=O)NN` [Compound 4i], in series [1] (setting [7]), the “Mean of Inhibition %” value is 22.63 ± 0.20%. Moreover, in series [1] (setting [8]), the MIC was found to be 50 µg/mL (≈ 214 µM).
Turning to `Cc1nc(-c2ccc(Br)cc2)ccc1C(=O)NN=Cc1ccc2ccccc2c1` [Compound 7f, 6-(4-Bromophenyl)-2-methyl-N'-(naphthalen-2-ylmethylene)nicotinohydrazide], the melting point was 273 to 275 °C. Besides, the “Mean of Inhibition %” value in series [1] (setting [7]) is reported as 14.32 ± 0.58%. In series [1] (setting [8]), the MIC is 100 µg/mL (≈ 225 µM).
Molecule `Cc1nc(-c2ccc(Br)cc2)ccc1C(=O)NN=Cc1ccc(Cl)cc1Cl` [Compound 7d, 6-(4-Bromophenyl)-N'-(2,4-dichlorobenzylidene)-2-methylnicotinohydrazide] registered a melting point of 269 to 271 °C. The “Mean of Inhibition %” value in series [1] (setting [7]) was found to be 13.57 ± 0.72%. In series [1] (setting [8]), the minimum inhibitory concentration (MIC) is 100 µg/mL (≈ 216 µM).
Turning to `Cc1nc(-c2ccc(F)cc2)ccc1C(=O)N/N=C1\C(=O)Nc2ccccc21` [Compound 8a], the “Mean of Inhibition %” value in series [1] (setting [7]) was 31.44 ± 0.58%. The minimal inhibitory concentration (MIC) in series [1] (setting [8]) came to 25 µg/mL (≈ 66.8 µM). For the same molecule, the half-maximal inhibitory concentration (IC50) in series [2], in series [3], in series [4], in series [5] and in series [6] was greater than 200 µM each time.
On to `COc1ccc(C=NNC(=O)c2ccc(-c3ccc(Br)cc3)nc2C)cc1` [Compound 7e, 6-(4-Bromophenyl)-N'-(4-methoxybenzylidene)-2-methylnicotinohydrazide], for which the melting point fell in the range of 251 to 253 °C. The “Mean of Inhibition %” value in series [1] (setting [7]) was “NA (No Activity (>100 µg/mL))”. Moreover, in series [1] (setting [8]), the MIC is greater than 100 µg/mL.
In the case of `NC(=O)c1cnccn1` [Pyrazinamid, pyrazinamide, reference compound], the “Mean of Inhibition %” value in series [1] (setting [7]) was 93.25 ± 0.63%. Further, in series [1] (setting [8]), the minimum inhibitory concentration (MIC) is 3.21 µg/mL (≈ 26.1 µM).
The matching figures for `Cc1nc(-c2ccccc2)ccc1C(=O)NN` [Compound 4a]: 42.52 ± 0.63% and 25 µg/mL (≈ 110 µM).
In turn, `Cc1nc(-c2ccc(Br)cc2)ccc1C(=O)NN=Cc1ccc(Cl)cc1` [Compound 7c, 6-(4-Bromophenyl)-N'-(4-chlorobenzylidene)-2-methylnicotinohydrazide] came in with a melting point of 265 to 267 °C. Besides, the “Mean of Inhibition %” value in series [1] (setting [7]) is on record as “NA (No Activity (>100 µg/mL))”. Further, the minimum inhibitory concentration (MIC) in series [1] (setting [8]) was greater than 100 µg/mL.
As for `NNC(=O)c1ccncc1` [Isoniazide, Isoniazid, reference compound], the MIC in series [1] (setting [8]) amounted to 0.75 µg/mL (≈ 5.47 µM).
`Cc1nc(-c2ccc(Br)cc2)ccc1C(=O)NN=Cc1ccc(F)cc1` [Compound 7b, 6-(4-Bromophenyl)-N'-(4-fluorobenzylidene)-2-methylnicotinohydrazide] registered a melting point of 252 to 254 °C. Further, the “Mean of Inhibition %” value in series [1] (setting [7]) is “NA (No Activity (>100 µg/mL))”. Also, in series [1] (setting [8]), the MIC is greater than 100 µg/mL.
